Earlier results in patent publication US20180271890A1, “Solid Pharmaceutical Composition Comprising Amorphous Sofosbuvir” (priority 2015, published 2018).

Compound	relative humidity at which the substance deliquesces (amorphous form)	behaviour under stress conditions (40 °C, relative humidity 75%)
CC(C)OC(=O)[C@H](C)N[P@](=O)(OC[C@H]1O[C@@H](n2ccc(=O)[nH]c2=O)[C@](C)(F)[C@@H]1O)Oc1ccccc1 [Amorphous sofosbuvir, (S)-isopropyl 2-(((S)-(((2R,3R,4R,5R)-5-(2,4-dioxo-3,4-dihydropyrimidin-1(2H)-yl)-4-fluoro-3-hydroxy-4-methyltetrahydrofuran-2-yl)methoxy)(phenoxy)phosphoryl)-amino)propanoate]	above 50%	
CC(C)OC(=O)[C@H](C)N[P@](=O)(OC[C@H]1O[C@@H](n2ccc(=O)[nH]c2=O)[C@](C)(F)[C@@H]1O)Oc1ccccc1 [sofosbuvir, (S)-isopropyl 2-(((S)-(((2R,3R,4R,5R)-5-(2,4-dioxo-3,4-dihydropyrimidin-1(2H)-yl)-4-fluoro-3-hydroxy-4-methyltetrahydrofuran-2-yl)methoxy)(phenoxy)phosphoryl)-amino)propanoate]		deliquesces after a few hours
